Reference: PubChem BioAssay (NCI)
Several values for one entry are separate records, joined by “and”; a condition that tells them apart may be missing. Equal entries are not always repeated.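 Tested at 5 concentrations; 48 h exposure; 96-well plates; endpoints linearly interpolated, else capped at highest concentration. GI50 is the concentration that inhibits growth by half. TGI denotes the concentration required for complete inhibition of growth.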

Key:
Assay in all cases: NCI anticancer screen, dose series, 48 h
M14 melanoma = tested on: M14 melanoma
BT-549 breast = tested on: BT-549 breast
SN12C renal = tested on: SN12C renal
EKVX NSCLC = tested on: EKVX NSCLC
HCT-15 colon = tested on: HCT-15 colon
KM12 colon = tested on: KM12 colon
SF-539 CNS = tested on: SF-539 CNS
OVCAR-5 ovarian = tested on: OVCAR-5 ovarian
NCI-H23 lung = tested on: NCI-H23 lung
LOX IMVI melanoma = tested on: LOX IMVI melanoma
OVCAR-4 ovarian = tested on: OVCAR-4 ovarian
NCI-H226 lung = tested on: NCI-H226 lung
786-0 renal = tested on: 786-0 renal
SF-268 CNS = tested on: SF-268 CNS
HCC-2998 colon = tested on: HCC-2998 colon
T-47D breast = tested on: T-47D breast
COLO 205 colon = tested on: COLO 205 colon
RPMI-8226 leukemia = tested on: RPMI-8226 leukemia
MDA-MB-231 breast = tested on: MDA-MB-231 breast

| SMILES | TGI (M14 melanoma) | TGI (BT-549 breast) | TGI (SN12C renal) | TGI (EKVX NSCLC) | TGI (HCT-15 colon) | TGI (KM12 colon) | TGI (SF-539 CNS) | TGI (OVCAR-5 ovarian) | TGI (NCI-H23 lung) | TGI (LOX IMVI melanoma) | TGI (OVCAR-4 ovarian) | TGI (NCI-H226 lung) | TGI (786-0 renal) | TGI (SF-268 CNS) | TGI (HCC-2998 colon) | TGI (T-47D breast) | TGI (COLO 205 colon) | TGI (RPMI-8226 leukemia) | TGI (MDA-MB-231 breast) | GI50 (SF-268 CNS) |
| --- | --- | --- | --- | --- | --- | --- | --- | --- | --- | --- | --- | --- | --- | --- | --- | --- | --- | --- | --- | --- |
| COc1ccc(-c2nc(-c3cnccn3)n(C3OC(CO)C(O)C3O)n2)cc1 (centres undefined) | > 10 µM | > 10 µM | > 10 µM | > 10 µM | > 10 µM | > 10 µM | > 10 µM | > 10 µM | > 10 µM | > 10 µM | > 10 µM | > 10 µM | > 10 µM | > 10 µM | > 10 µM |  |  |  |  |  |
| CO/C(=N\N=C\c1ccc(Cl)c(Cl)c1)c1ccncc1 | > 10 µM |  | > 10 µM |  | > 10 µM | > 10 µM | > 10 µM | > 10 µM | > 10 µM | > 10 µM |  | > 10 µM | > 10 µM | > 10 µM | > 10 µM | > 10 µM | > 10 µM | > 10 µM |  |  |
| CC(Cn1c2c(c3cc(O)ccc31)CCc1ccc(O)cc1-2)N(C)C (centres undefined) | 28.8 µM | 36.8 µM | 68.9 µM | 52.9 µM | 30.2 µM | 29.9 µM | 32.1 µM | 37.2 µM | 41.2 µM | 81 µM |  | 37.3 µM | 35.9 µM | 53.2 µM |  |  |  | > 100 µM | 59.4 µM |  |
| O=[N+]([O-])c1cccc(Nc2nc(Cl)nc(Cl)n2)c1 | > 100 µM |  | > 100 µM | > 100 µM | > 100 µM | > 100 µM | > 100 µM | > 100 µM | > 100 µM | > 100 µM | > 100 µM | > 100 µM | > 100 µM | > 100 µM | > 100 µM |  | > 100 µM | > 100 µM |  |  |
| COc1ccc(/C=C\c2cc(OC)c(OC)c(OC)c2)cc1 | > 100 µM |  | > 100 µM |  |  | > 100 µM | 0.00384 µM | 90.8 µM | 0.0118 µM |  |  | 0.222 µM and 0.0693 µM | > 100 µM | > 100 µM |  |  | 11.5 µM | > 100 µM |  | 0.0443 µM |
| COc1ccc2[nH]c3c(c2c1)[C@H]1CCC(C(C)(C)C)C[C@H]1[C@H]1C(=O)N(c2ccccc2)C(=O)[C@@H]31 (some centres undefined) | 30.6 µM |  | > 44.5 µM | > 100 µM | > 100 µM | > 100 µM | 18.1 µM | > 100 µM | > 52.1 µM | > 100 µM | 14.4 µM | 81.9 µM | 15.6 µM | > 48.2 µM | > 100 µM |  | > 79.2 µM | > 100 µM |  |  |
| CCCCCCCCC(O)c1ccc(/C=C\C(O)CCCC(=O)O)s1 (centres undefined) | > 100 µM |  | > 100 µM | > 100 µM | > 100 µM | > 100 µM | > 100 µM | > 100 µM | > 100 µM | > 100 µM | > 100 µM | > 100 µM | > 100 µM | > 100 µM | > 100 µM |  | > 100 µM | > 100 µM |  |  |
| COC(=O)/C=C(\C)CCC1SC1(C)C (centres undefined) | > 100 µM |  | > 100 µM | > 100 µM | > 100 µM | > 100 µM | > 100 µM | > 100 µM | > 100 µM | > 100 µM | > 100 µM | > 100 µM | > 100 µM | > 100 µM | > 100 µM |  | > 100 µM | > 100 µM |  |  |
| COc1cc(OC)c2c(=O)c3cccc(C)c3n(C)c2c1 | > 100 µM | > 100 µM | > 100 µM | > 100 µM | > 100 µM | > 100 µM | > 100 µM | > 100 µM | > 100 µM | > 100 µM | > 100 µM | > 100 µM | > 100 µM | > 100 µM | > 100 µM |  | > 100 µM | 58.9 µM | > 100 µM |  |
| CCOC(=O)C(=CNc1ccc(F)c(F)c1)C(=O)OCC | > 100 µM |  | > 100 µM | > 100 µM | > 100 µM | > 100 µM | > 100 µM | > 100 µM | > 100 µM | > 100 µM | > 100 µM | > 100 µM | > 100 µM | > 100 µM | > 100 µM | > 100 µM | > 100 µM | > 100 µM | > 100 µM |  |
| O=C1NCN(c2ccccc2)C12CCN(CC1COc3ccccc3O1)CC2 (centres undefined) | > 100 µM |  | > 100 µM | 98.2 µM | > 100 µM |  | > 100 µM | > 100 µM | > 100 µM | > 100 µM | > 100 µM | > 100 µM | > 100 µM | > 100 µM | > 100 µM | > 100 µM | > 100 µM | > 100 µM | > 100 µM |  |
